From patent US12637474B2, “Five-membered heteroaromatic imidazole compound and use thereof” (Hangzhou Sciwind Biosciences Co., Ltd, priority 2020, dated 2026)

Legend:
Human-GLP1 = molecular target: T1, Human-GLP1 (Homo sapiens, UniProt P43220); test: In vitro cell activity test (cAMP detection, GLP-1 HEK293 cells); assay type: cell-based; details: HEK293 cells expressing GLP-1 target
T1 construct: the earlier reading says HEK293
Description: Experimental Embodiment 1. In Vitro Cell Activity Test
The cell was constructed by Shanghai WuXi AppTec New Pharmaceutical Development Co., Ltd. The detailed information is as follows.
The compound was formulated to a working concentration of 30 μM with DMSO. In this experiment, the amount of each sample used was 5 μL.
The pH value was adjusted to 7.4 and diluted to 25 mL with HBSS 1×.
Preparation of cAMP detection reagent, 250 μL of cAMP-D2 and 250 μL of anti-cAMP cryptate reagent were added to 4 mL of lysis buffer, and the mixture was mixed gently.
The compound to be tested was 3-fold diluted at 10 points, the initial concentration was 30 μM, and the dilution was completed and treated by Bravo.
The reference compound exenatide was 3-fold diluted at 10 points, the initial concentration was 500 nM, and the dilution was completed and treated by Bravo.
• 1) 100 nL of the compound was transferred to OptiPlate-384 plate using Echo. • 2) The OptiPlate-384 plate was centrifuged at 1000 rpm for 5 seconds. c) Preparation of Cell Suspension • 1) A cryopreservation tube of GLP-1 cells was quickly thawed in 37° C. warm water. • 2) The cell suspension was transferred to a Transfer 15 mL centrifuge tube, and rinsed gently with 10 mL of HBSS. • 3) The centrifuge tube was centrifuged at 1000 rpm for 1 minute at room temperature. • 4) The supernatant was discarded. • 5) The bottom cells were gently homogenized and then gently rinsed with 10 mL of HBSS, centrifuged and settled, the cells were finally re-suspend with experimental buffer. • 6) Cell density and activity were measured by Vi-cell. • 7) The concentration of GLP-1 cells was diluted to 2.0*10^5/mL with experimental buffer. • 8) […] of diluted cell suspension was transferred into OptiPlate-384 plate. • 9) The cells was incubated at room temperature for 30 minutes. d) Detection Reagent was Added: • 1) 10 μL of 800 nM gradient diluted cAMP standard was added to the empty well of OptiPlate-384 plate. • 2) 10 μL of cAMP detection reagent was added. • 3) The OptiPlate-384 plate was covered with TopSeal-A film and incubated at room temperature for 60 minutes.
TopSeal-A was removed and read by EnVision.

DMPK study in mice = assay type: in vivo; details: male C57 mice, plasma; for Oral DNAUC / bioavailability / Cmax: oral 5 mg/kg; for Oral DNAUC: DNAUC=AUCPO/Dose; for half-life / bioavailability / clearance / Vd / Cmax: mouse; for half-life: oral, 5 mg/kg; for half-life / clearance / Vd: single dose; for Vd: read-out: Vdss
Description: Male C57 mice were used as test animals, after a single dose, the plasma concentration of the compound was determined and the pharmacokinetic behavior was evaluated.
Three healthy adult male C57 mice were selected as oral group. In the oral group, the solvent was 20% PEG400/10% solutol/70% water, the compounds to be tested were mixed with the solvent, the mixture was votexed and sonicated to prepare a 0.5 mg/mL clear solution. After oral administration of 5 mg/kg, the whole blood of mice was collected for a certain period of time, and the plasma was prepared, the drug concentration was analyzed by LC-MS/MS, and the pharmacokinetic parameters were calculated by Phoenix WinNonlin software (Pharsight Company, USA).
Note: -- refers to untested; PEG refers to polyethylene glycol; solutol refers to polyethylene glycol-15 hydroxystearate; Cmax refers to maximum concentration; DNAUC=AUCPO/Dose, AUCPO refers to oral exposure and Dose refers to drug dose; Vdss refers to distribution volume; Cl refers to clearance rate; T1/2 refers to half-life.

hERG potassium channel = molecular target: T2, hERG potassium channel (Homo sapiens, UniProt Q12809); test: hERG test (automatic patch clamp, CHO-hERG cells); assay type: cell-based; details: hERG current; for IC50: Qpatch; for Maximum concentration inhibition rate (%): highest test concentration 40 μM
T2 construct: expressed in transfected cells; host or cells: CHO-hERG cells
T2 sequence (Q12809 whole entry): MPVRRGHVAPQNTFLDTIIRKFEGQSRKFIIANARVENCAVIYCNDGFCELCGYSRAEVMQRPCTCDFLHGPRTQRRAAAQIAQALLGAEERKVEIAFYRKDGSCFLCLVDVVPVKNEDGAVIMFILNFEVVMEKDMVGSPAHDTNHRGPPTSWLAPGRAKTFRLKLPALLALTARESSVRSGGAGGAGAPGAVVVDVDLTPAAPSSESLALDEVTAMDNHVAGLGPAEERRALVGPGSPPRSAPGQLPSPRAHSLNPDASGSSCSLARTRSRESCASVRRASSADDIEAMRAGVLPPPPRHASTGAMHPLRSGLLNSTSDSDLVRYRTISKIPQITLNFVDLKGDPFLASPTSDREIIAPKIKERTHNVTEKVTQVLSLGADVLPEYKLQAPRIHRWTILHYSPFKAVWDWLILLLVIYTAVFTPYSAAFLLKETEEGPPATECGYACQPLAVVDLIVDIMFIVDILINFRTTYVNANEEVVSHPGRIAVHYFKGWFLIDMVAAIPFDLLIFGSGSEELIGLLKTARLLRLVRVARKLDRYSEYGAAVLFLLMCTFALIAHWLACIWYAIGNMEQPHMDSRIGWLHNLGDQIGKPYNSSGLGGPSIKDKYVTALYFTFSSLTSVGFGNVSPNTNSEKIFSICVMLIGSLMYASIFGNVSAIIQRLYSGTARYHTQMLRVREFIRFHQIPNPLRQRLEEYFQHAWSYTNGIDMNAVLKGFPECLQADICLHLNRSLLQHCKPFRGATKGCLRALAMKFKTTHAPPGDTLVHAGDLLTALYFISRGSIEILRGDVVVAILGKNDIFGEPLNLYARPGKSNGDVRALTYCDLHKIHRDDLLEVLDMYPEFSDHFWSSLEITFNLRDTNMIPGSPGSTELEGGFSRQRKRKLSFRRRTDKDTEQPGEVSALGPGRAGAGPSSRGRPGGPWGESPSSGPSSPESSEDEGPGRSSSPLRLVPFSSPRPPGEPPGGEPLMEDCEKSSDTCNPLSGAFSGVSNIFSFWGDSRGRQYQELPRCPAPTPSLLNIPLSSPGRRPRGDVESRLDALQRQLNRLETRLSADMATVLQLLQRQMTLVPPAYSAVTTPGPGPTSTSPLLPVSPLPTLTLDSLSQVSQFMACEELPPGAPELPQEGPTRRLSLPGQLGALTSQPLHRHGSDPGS
Description: The effects of compounds on the current of hERG potassium channel (human Ether-a-go-go Related Gene potassium channel) were measured by the automatic patch clamp method.
CHO-hERG cells were cultured in a 175 cm^2 flask, when the cell density reached 60-80%, the culture medium was removed, the cells were washed once with 7 mL of PBS (Phosphate Buffered Saline), and then detached with 3 mL of Detachin. After digestion was completed, 7 mL of culture medium was added to neutralize, then the mixture was centrifuged, the supernatant was aspirated, and then 5 mL of culture medium was added to re-suspend, ensuring 2-5×10^6/mL of cell density.
Extracellular fluid formulation (mM): 140 NaCl, 5 KCl, 1 CaCl2, 1.25 MgCl2, 10 HEPES and 10 Glucose, the pH value was adjusted to 7.4 with NaOH.
Intracellular fluid formulation (mM): 140 KCl, 1 MgCl2, 1 CaCl2, 10 EGTA and 10 HEPES, the pH value was adjusted to 7.2 with KOH.
The process of single cell high impedance sealing and whole cell mode formation were all automatically completed by Qpatch instrument, after obtaining the whole cell recording mode, the cells were clamped at −80 mV, before giving a 5-second+40 mV depolarization stimulus, a 50 millisecond −50 mV prevoltage was given first, and then repolarized to −50 mV for 5 seconds, then returned to −80 mV. This voltage stimulation was applied every 15 seconds and after recording for 2 minutes, extracellular fluid was recordings for 5 minutes, and then the administration process was started, the compound concentration was given from the lowest test concentration, each test concentration was given for 2.5 minutes, and 3 μM of Cisapride as the positive control compound was given after all concentrations were continuously given. At least 3 cells (n>3) were tested at each concentration.
The mother liquor of the compound was diluted with DMSO, and 10 μL of mother liquor of the compound was added to 20 μL of DMSO solution, and was 3-fold diluted continuously to 6 DMSO concentrations. 4 μL of compounds with 6 DMSO concentrations were added to 396 μL of extracellular fluid, 100-fold diluted to 6 intermediate concentrations, and then 80 μL of the compounds with 6 intermediate concentrations were added to 320 μL of extracellular fluid, 5-fold diluted to the final concentration to be tested. The highest test concentration was 40 μM, in a total of 6 concentrations of 40, 13.3, 4.4, 1.48, 0.494 and 0.165 μM respectively. The content of DMSO in the final test concentration was not more than 0.2%, and this concentration of DMSO had no effect on hERG potassium channel. The whole dilution process of compound preparation was completed by Bravo instrument.
The experimental data were analyzed by GraphPad Prism 5.0 software. […]

MDR1 (P-gp) = test: Permeability test (MDR1-MDCKII monolayer cell model); assay type: in vitro ADME; details: dog, MDCK-MDR1, incubation 150 min, read-out: Efflux rate
Description: (§1) The objective of this study was to determine the bidirectional permeability and efflux rate of the samples by using MDR1-MDCKII monolayer cell model.
(§2) MDR1-MDCKII cells (11th generation) were inoculated into 96-well cell culture plate and cultured continuously for 4-7 days for transport experiment. The sample was administered in both directions at a concentration of 2.00 μM. After incubation for 150 min, the sample was collected and the content of the test product in the sample was determined by liquid chromatography-tandem mass spectrometry (LC-MS/MS).
(§3) When the administration concentration was 2.00 μM, the average apparent permeability coefficient (Papp) of the test product from the top to the basal end (A-B) direction, the average apparent permeability coefficient from the basal end to the top (B-A) direction, and the efflux ratio (ER) are shown in Table 5. Note: The boundaries of low and high permeability grades were equivalent to 50% and 80% of human “calculated Fa”. The grading criteria were based on WuXi AppTec's routine MDR1-MDCK II permeability test (test concentration was 2 μM, incubation for 2.5 hours).

MDR1-MDCKII cells = test: as above; assay type: in vitro ADME; details: 2.00 μM, low/high boundaries equivalent to 50% and 80% of human calculated Fa
Description: as §1, §2, §3

[1] = as above; assay type: in vitro ADME; details: dog, MDCK-MDR1, incubation 150 min; for Papp B→A at 150 min, 2 μM: basal end to top; for Papp A→B at 150 min, 2 μM: top to basal end
Description: as §1, §2, §3

[2] = DMPK study in cynomolgus monkey; assay type: in vivo; details: male cynomolgus monkey, plasma; for Cmax / Oral DNAUC / bioavailability: oral 3 mg/kg; for Vd: read-out: Vdss
Description: Male cynomolgus monkey were used as test animals, after a single dose, the plasma concentration of the compound was determined and the pharmacokinetic behavior was evaluated.
Two healthy male cynomolgus monkeys were selected as the oral group. The solvent of the oral group was 20% PEG 400+10% solutol+70% water. The compounds to be tested were mixed with the solvent, the mixture was votexed and sonicated to prepare a 0.5 mg/mL approximately clear solution. The oral dosage of cynomolgus monkeys was 3 mg/kg, after oral administration, the whole blood of cynomolgus monkeys was collected for a certain period of time, and the plasma was prepared, the drug concentration was analyzed by LC-MS/MS, and the pharmacokinetic parameters were calculated by Phoenix WinNonlin software (Pharsight Company, USA).

T1 sequence (P43220 24-463): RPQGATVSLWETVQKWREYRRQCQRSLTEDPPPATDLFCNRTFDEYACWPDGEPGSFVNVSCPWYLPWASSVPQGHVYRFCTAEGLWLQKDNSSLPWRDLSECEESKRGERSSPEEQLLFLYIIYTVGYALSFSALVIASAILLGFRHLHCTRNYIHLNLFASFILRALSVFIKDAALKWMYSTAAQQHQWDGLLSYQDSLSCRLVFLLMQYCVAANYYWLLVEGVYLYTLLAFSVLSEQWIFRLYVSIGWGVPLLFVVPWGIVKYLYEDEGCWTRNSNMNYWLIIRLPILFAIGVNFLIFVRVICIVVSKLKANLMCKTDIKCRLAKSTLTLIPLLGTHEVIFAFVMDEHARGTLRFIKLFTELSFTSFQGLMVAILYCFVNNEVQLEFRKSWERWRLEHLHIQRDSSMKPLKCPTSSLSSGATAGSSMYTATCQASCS

## N#Cc1ccc(COc2cccc(C3=CCN(Cc4nc5sc(C(=O)O)cc5n4C[C@@H]4CCO4)CC3)n2)c(F)c1 [WXA001]
Human-GLP1
  EC50: 0.67 nM
DMPK study in mice
  Oral DNAUC: 647.4 nM.h/mpk
  half-life: 2.07 h
  bioavailability: 220%
  clearance: 104 mL/min/kg
  Vd: 1.87 L/kg
  Cmax: 1760 nM
hERG potassium channel
  IC50: > 40000 nM
  Maximum concentration inhibition rate (%): 30.4%
MDR1 (P-gp)
  efflux ratio at 150 min, 2 μM: 1.53
MDR1-MDCKII cells
  Rank (permeability grade): Medium
[1]
  Papp B→A at 150 min, 2 μM: 3.87 ×10⁻⁶ cm/s
  Papp A→B at 150 min, 2 μM: 2.53 ×10⁻⁶ cm/s
[2]
  Cmax: 28.3 nM
  Oral DNAUC: 74 nM.h/mpk
  bioavailability: 5.6%
[2]; single dose
  clearance: 22.7 mL/min/kg
  Vd: 0.73 L/kg

## N#Cc1ccc(COc2cccc(C3=CCN(Cc4nc5cc(C(=O)O)sc5n4C[C@@H]4CCO4)CC3)n2)c(F)c1 [WXA002]
Human-GLP1
  EC50: 2.7 nM

## N#Cc1ccc(COc2cccc(C3CCN(Cc4nc5sc(C(=O)O)cc5n4C[C@@H]4CCO4)CC3)n2)c(F)c1 [WXA003]
Human-GLP1
  EC50: 1.07 nM

## N#Cc1ccc(COc2cccc(C3CCN(Cc4nc5cc(C(=O)O)sc5n4C[C@@H]4CCO4)CC3)n2)c(F)c1 [WXA004]
Human-GLP1
  EC50: 1.9 nM

## O=C(O)c1cc2c(nc(CN3CC=C(c4cccc(OCc5ccc(Cl)cc5F)n4)CC3)n2C[C@@H]2CCO2)s1 [WXA005]
DMPK study in mice
  Oral DNAUC: 301.8 nM.h/mpk
  half-life: 2.47 h
  bioavailability: 63%
  clearance: 63.6 mL/min/kg
  Vd: 2.84 L/kg
  Cmax: 835 nM
hERG potassium channel
  IC50: > 40000 nM
  Maximum concentration inhibition rate (%): 33.1%
MDR1 (P-gp)
  efflux ratio at 150 min, 2 μM: 1.18
MDR1-MDCKII cells
  Rank (permeability grade): High
[1]
  Papp B→A at 150 min, 2 μM: 8.49 ×10⁻⁶ cm/s
  Papp A→B at 150 min, 2 μM: 7.19 ×10⁻⁶ cm/s
[2]
  Cmax: 245 nM
  Oral DNAUC: 889 nM.h/mpk
  bioavailability: 31%
[2]; oral, 3 mg/kg, single dose
  half-life: 4.94 h
[2]; single dose
  clearance: 10.7 mL/min/kg
  Vd: 0.59 L/kg

## O=C(O)c1cc2nc(CN3CC=C(c4cccc(OCc5ccc(Cl)cc5F)n4)CC3)n(C[C@@H]3CCO3)c2s1 [WXA006]
Human-GLP1
  EC50: 1.44 nM
DMPK study in mice
  Oral DNAUC: 307.4 nM.h/mpk
  half-life: 1.43 h
  Cmax: 865 nM

## O=C(O)c1sc2nc(CN3CC=C(c4cccc(OCc5ccc(Cl)cc5F)n4)CC3)n(C[C@@H]3CCO3)c2c1F [WXA007]
Human-GLP1
  EC50: 0.2 nM

## Cc1c(C(=O)O)sc2nc(CN3CC=C(c4cccc(OCc5ccc(Cl)cc5F)n4)CC3)n(C[C@@H]3CCO3)c12 [WXA008]
Human-GLP1
  EC50: 2.46 nM

## O=C(O)c1cc2c(nc(CN3CC=C(c4cccc(OCc5ccc(Cl)cc5F)c4)CC3)n2C[C@@H]2CCO2)s1 [WXA011]
Human-GLP1
  EC50: 1.94 nM

## O=C(O)c1cc2nc(CN3CC=C(c4cccc(OCc5ccc(Cl)cc5F)c4)CC3)n(C[C@@H]3CCO3)c2s1 [WXA012]
Human-GLP1
  EC50: 9.4 nM

## N#Cc1ccc(COc2cccc(C3=CCN(Cc4nc5sc(C(=O)O)cc5n4C[C@@H]4CCO4)CC3)c2)c(F)c1 [WXA013]
Human-GLP1
  EC50: 2.46 nM

## N#Cc1ccc(COc2cccc(C3=CCN(Cc4nc5cc(C(=O)O)sc5n4C[C@@H]4CCO4)CC3)c2)c(F)c1 [WXA014]
Human-GLP1
  EC50: 9.6 nM

## O=C(O)c1cc2c(nc(CN3CC=C(c4ccc(F)c(OCc5ccc(Cl)cc5F)n4)CC3)n2C[C@@H]2CCO2)s1 [WXA015]
Human-GLP1
  EC50: 1.64 nM

## O=C(O)c1cc2nc(CN3CC=C(c4ccc(F)c(OCc5ccc(Cl)cc5F)n4)CC3)n(C[C@@H]3CCO3)c2s1 [WXA016]
Human-GLP1
  EC50: 3.52 nM
